One may read the IC50 as the concentration that gives 50% inhibition. Low values mean higher potency, high ones lower potency. By AUC(0-inf) is commonly meant the area under the concentration-time curve extrapolated to infinity. One may read the Cmax as the peak of the concentration-time curve. In general, half-life refers to how long it takes for the measured level to halve. In general, Tmax refers to the time at which the peak concentration occurs. As a reminder, the clearance is the volume of plasma or blood freed of the substance per unit of time. A low value points to inefficient removal. As a reminder, the bioavailability is the share of a dose that reaches the circulation, judged against a reference dose that is usually intravenous. A lower bioavailability goes with poor availability.

Structures are written as SMILES. Where two headings read alike, the source gives them in different places.

One data set has as its system 22RV1 cells. Kind of data set: Cell proliferation inhibition assay in 22RV1 cells (CellTiter-Glo, 7 days). It is filed as cell-based, human. The note with it: Homo sapiens. On the procedure: • 1. The human prostate cancer cell lines 22RV1 and LNCaP were purchased from ATCC. […] The cell concentration was adjusted to an appropriate concentration (determined based on the results of cell density optimization experiments), and the cells were seeded into a 96-well plate. A 100 µL cell suspension was added, resulting in 3000 cells per well. […] On the second day, for 22Rv1 cells, test compounds at different concentrations were added, and the cells were incubated at 37°C in a 5% CO2 incubator for 7 days; for LNCaP cells, test compounds at different concentrations were added first, and after 1 hour of treatment, 0.2 nM DHT was added. The cells were then incubated at 37°C in a 5% CO2 incubator for 7 days. • 4. After the incubation period, a volume of CellTiter-Glo detection reagent equal to the volume of the culture medium was added to each well. The plate was shaken and mixed thoroughly for 5 minutes, then incubated at room temperature for 10 minutes. Readings were taken using a PerkinElmer EnVision microplate reader. • 5.
The IC50 curve was fitted and the IC50 value was calculated using the software GraphPad Prism 8 with the calculation formula XY-analysis/Nonlinear regression (curve fit)/Dose response-Inhibition/log (inhibitor) vs. response-Variable slope (four parameters).

A short description of data set [1]: Mouse pharmacokinetic test. It is filed as in vivo, ICR mice. The note with it: plasma; for Tmax: read-out: Tmax. The protocol:
Formulation preparation: The dosing solutions were prepared on the day of administration.
Six healthy male naive ICR mice weighing 25-30 g were selected and divided into two groups (intravenous and oral groups), with three mice in each group, and administered a single dose. […] Feeding was resumed 4 h after administration. Timing was initiated following intravenous and oral administration. […] The collected whole blood was briefly vortexed twice for mixing, placed on wet ice, and centrifuged at 4°C and 8000 rpm for 5 min within 1 h. The supernatant plasma was collected and stored at -80°C until processing and analysis. Table 3: Pharmacokinetics in mice

Consider `CC(C)(c1ccc(-c2ccc(OCc3ccnc(N4CC[C@H](S(C)(=O)=O)C4)n3)cc2)cc1)c1cc(Cl)c(OCCCl)c(C#N)c1` [Compound 202], for which the IC50 with 22RV1 cells (22Rv1, 168 h) is 660 nM. Moreover, in data set [1] (po, 30 mg/kg, PO-30mpk), the area under the curve AUC(0-inf) came out at 202 µg·h/mL, the concentration peaked (Cmax) at 8880 ng/mL, the half-life is 1110 min and the Tmax is 4 h.

Turning to `CC(C)(c1ccc(-c2ccc(COc3ccnc(P(C)(C)=O)n3)cc2)cc1)c1cc(Cl)c(OCCCl)c(C#N)c1` [Compound 253], in the data set on 22RV1 cells (22Rv1, 168 h), half-maximal inhibition (IC50) was put at 1060 nM. For the same compound, in data set [1] (po, 30 mg/kg, PO-30mpk), the AUC(0-inf) was determined as 298 µg·h/mL, the Cmax is 20800 ng/mL, the half-life is 438 min and the Tmax was determined as 5 h.

Compound `CCCOc1c(Cl)cc(C(C)(C)c2ccc(-c3ccc(OCc4ccnc(P(C)(C)=O)n4)cc3)cc2)cc1C#N` [Compound 191] gave a 50% inhibitory concentration (IC50) in the data set with 22RV1 cells (168 h) of 410 nM. Besides, in data set [1] (30 mg/kg, PO-30mpk), the AUC(0-inf) was 481 µg·h/mL, the highest level (Cmax) was 25000 ng/mL, the half-life is 792 min and the time of peak concentration (Tmax) amounted to 4 h.

In the data set with 22RV1 cells (22Rv1, 168 h), `CC(C)(c1ccc(-c2ccc(OC3CCN(c4ccnc(P(C)(C)=O)n4)CC3)nc2)cc1)c1cc(Cl)c(OCCCl)c(C#N)c1` [Compound 103] returned an IC50 of 690 nM. Moreover, in data set [1] (po, 30 mg/kg, PO-30mpk), the AUC(0-inf) is 247 µg·h/mL, the peak level (Cmax) was 18100 ng/mL, the half-life was 450 min and the Tmax is 4 h.

`CC(C)(c1ccc(-c2ccc(OCc3ccnc(P(C)(C)=O)n3)nc2)cc1)c1cc(Cl)c(OCCCl)c(C#N)c1` [Compound 17] came in with an IC50 in the data set on 22RV1 cells (22Rv1, 168 h) of 960 nM. In data set [1] (0.5 mg/kg, IV-0.5mpk), this compound had a C0 of 982 ng/mL and a clearance of 1.1 mL/min/kg. Moreover, the bioavailability in data set [1] (30 mg/kg, PO-30mpk vs IV-0.5mpk) is 92.2%. In data set [1] (iv, 0.5 mg/kg, IV-0.5mpk), the AUC(0-inf) worked out at 7.59 µg·h/mL and the half-life is 336 min. For the same compound, in data set [1] (po, 30 mg/kg, PO-30mpk), the AUC(0-inf) turned out to be 420 µg·h/mL, the Cmax amounted to 35700 ng/mL, the half-life was 349 min and the time to peak (Tmax) came to 4.67 h.

In the data set on 22RV1 cells (22Rv1, 168 h), `CC(C)(c1ccc(-c2ccc(OCC3CC4(C3)CS(=N)(=O)C4)cc2)cc1)c1cc(Cl)c(OCCCl)c(C#N)c1` (stereo not drawn) [Compound 308] gave an IC50 of 750 nM. In data set [1] (po, 30 mg/kg, PO-30mpk), the AUC(0-inf) was determined as 186 µg·h/mL, the highest level (Cmax) was 14300 ng/mL, the half-life was 267 min and the time to peak (Tmax) amounted to 3 h.

`COc1c(Cl)cc(C(C)(C)c2ccc(-c3ccc(OCc4ccnc(P(C)(C)=O)n4)cc3)cc2)cc1C#N` [Compound 237] returned a concentration for half-maximal inhibition (IC50) with 22RV1 cells (22Rv1, 168 h) of 860 nM. Besides, in data set [1] (po, 30 mg/kg, PO-30mpk), the total exposure AUC(0-inf) was found to be 213 µg·h/mL, the concentration peaked (Cmax) at 16200 ng/mL, the half-life is 252 min and the Tmax came out at 3 h.

In the data set on 22RV1 cells (22Rv1, 168 h), `CC(C)(c1ccc(-c2ccc(Oc3ccnc(P(C)(C)=O)n3)cc2)cc1)c1cc(Cl)c(OCCCl)c(C#N)c1` [Compound 26] had an IC50 of 1420 nM. In data set [1] (po, 30 mg/kg, PO-30mpk), the AUC(0-inf) stood at 368 µg·h/mL, the concentration peaked (Cmax) at 29500 ng/mL, the half-life was 469 min and the time to peak (Tmax) was found to be 3.33 h.

Take `CC(C)(c1ccc(-c2ccc(OCc3ccnc(N4CC(P(C)(C)=O)C4)n3)cc2)cc1)c1cc(Cl)c(OCCCl)c(C#N)c1` [Compound 135]: half-maximal inhibition in the data set with 22RV1 cells (22Rv1, 168 h) (IC50) required 230 nM. In addition, in data set [1] (po, 30 mg/kg, PO-30mpk), the AUC(0-inf) came out at 207 µg·h/mL, the maximum concentration (Cmax) worked out at 13600 ng/mL, the half-life is 336 min and the Tmax stood at 6 h.

`CC(C)(c1ccc(-c2ccc(OCc3ccnc(N4CC5(CC(S(C)(=N)=O)C5)C4)n3)cc2)cc1)c1cc(Cl)c(OCCCl)c(C#N)c1` (stereo not drawn) [Compound 245]: inhibition in the data set with 22RV1 cells (22Rv1, 168 h) was half-maximal at 990 nM (IC50). Moreover, in data set [1] (po, 30 mg/kg, PO-30mpk), the AUC(0-inf) is 181 µg·h/mL, the Cmax is 11000 ng/mL, the half-life is 438 min and the Tmax stood at 5 h.

On to `CC(C)(c1ccc(-c2ccc(OCc3ccnc(P(C)(C)=O)n3)c(F)c2)cc1)c1cc(Cl)c(OCCCl)c(C#N)c1` [Compound 117], for which the IC50 in the data set with 22RV1 cells (22Rv1, 168 h) was determined as 680 nM. Also, in data set [1] (po, 30 mg/kg, PO-30mpk), the AUC(0-inf) came to 304 µg·h/mL, the highest concentration (Cmax) stood at 15700 ng/mL, the half-life is 726 min and the Tmax amounted to 4 h.

For `CC(C)(c1ccc(-c2ccc(OCc3ccnc(N=S4(=O)CCCC4)n3)cn2)cc1)c1cc(Cl)c(OCCCl)c(C#N)c1` [Compound 16], inhibition in the data set on 22RV1 cells (22Rv1, 168 h) was half-maximal at 940 nM (IC50). In addition, in data set [1] (po, 30 mg/kg, PO-30mpk), the AUC(0-inf) worked out at 211 µg·h/mL, the highest level (Cmax) was 36100 ng/mL, the half-life was 87.6 min and the Tmax turned out to be 1.67 h.

`C[C@H](Cl)COc1c(Cl)cc(C(C)(C)c2ccc(-c3ccc(OCc4ccnc(P(C)(C)=O)n4)cc3)cc2)cc1C#N` [Compound 283] had a half-maximal inhibitory concentration (IC50) in the data set on 22RV1 cells (22Rv1, 168 h) of 840 nM. In data set [1] (po, 30 mg/kg, PO-30mpk), the total exposure AUC(0-inf) was 277 µg·h/mL, the concentration peaked (Cmax) at 18700 ng/mL, the half-life is 558 min and the time of peak concentration (Tmax) amounted to 4 h.

On to `CC(C)(c1ccc(-c2ccc(OCc3cc(P(C)(C)=O)ccn3)cc2)cc1)c1cc(Cl)c(OCCCl)c(C#N)c1` [Compound 224], for which, in the data set on 22RV1 cells (168 h), it took 1330 nM to reach half-maximal inhibition (IC50). This counts as single-digit micromolar.

Regarding `CC(C)(c1ccc(-c2ccc(OCc3ccnc(N=S4(=O)CCOCC4)n3)nc2)cc1)c1cc(Cl)c(OCCCl)c(C#N)c1` [Compound 19], in the data set on 22RV1 cells (168 h), the half-inhibitory concentration (IC50) was found to be 860 nM. Against the preceding compound, the IC50 is about 1.5-fold lower.

`CC(C)(c1ccc(-c2ccc(OCC3CC(N4CC5(C4)CS(=O)(=O)C5)C3)cc2)cc1)c1cc(Cl)c(OCCCl)c(C#N)c1` (stereo not drawn) [Compound 230]: in the data set with 22RV1 cells (168 h), the concentration for half-maximal inhibition (IC50) stood at 520 nM.

`CC1(NS(C)(=O)=O)CN(c2nccc(COc3ccc(-c4ccc(C(C)(C)c5cc(Cl)c(OCCCl)c(C#N)c5)cc4)cc3)n2)C1` [Compound 90] showed an IC50 in the data set on 22RV1 cells (168 h) of 1320 nM.

As to `CC(C)(c1ccc(-c2ccc(OCc3ccnc(N=S4(=O)CCN(C[C@@H](O)C(F)(F)F)CC4)n3)cc2)cc1)c1cc(Cl)c(OCCCl)c(C#N)c1` [Compound 286], in the data set with 22RV1 cells (168 h), it took 700 nM to reach half-maximal inhibition (IC50). Compared with the last compound, the IC50 is about 1.9-fold lower.

These data come from patent EP4778922A1, “BICYCLIC COMPOUND, AND PREPARATION METHOD THEREFOR AND PHARMACEUTICAL USE THEREOF” (Shanghai Jeyou Pharmaceutical Co., Ltd., priority 2023, dated 2025).
